This is an account of results in patent publication US20040176466A1, “Combination therapy for the treatment of neurological disorders” (priority 2001, published 2004).

Several values for one entry are separate records, joined by “and”; a condition that tells them apart may be missing. Identical values can stand only once. Like-named read-outs stand apart in the source and are kept apart here.

The conditions of series [1]: cited from earlier work.
Series [2] can be described thus: Steady-state pharmacokinetics of atomoxetine alone and coadministered with paroxetine in CYP2D6 extensive metabolizers. It counts as in vivo. The settings on record: both sexes, human, plasma, oral; for AUC: read-out: AUC0-τ; for Vd/F: read-out: Vz/F. As for the experimental part: The study was conducted at the Lilly Laboratory for Clinical Research in Indianapolis, Ind. The protocol and informed consent documents were approved by the Institutional Review Board of Indiana University—Purdue University at Indianapolis. The study was conducted in accordance with the Declaration of Helsinki. All participants provided informed written consent before enrollment into the study. All volunteers were considered to be healthy on the basis of medical history, electrocardiographic findings, and routine clinical laboratory tests. Volunteers with clinically abnormal results were excluded from the study.
Only CYP2D6 extensive metabolizers, as determined by genotyping and phenotyping analyses, were entered in this study. CYP2D6 genotype was performed by PPGx (Morrisville, N.C.). DNA from whole blood samples were isolated and purified and analyzed for CYP2D6 genotype using a validated PCR ([…]) method. CYP2D6 genotype was evaluated by testing the *3, *4, *5, *6, *7, and *8 poor metabolizer (PM) alleles. If patients were homozygous for any combination of these alleles, a PM genotype was assigned; otherwise, an extensive metabolizer genotype (EM) was assigned. CYP2D6 phenotype was performed using the urine ratio of dextromethorphan/dextrorphan following an oral dose of dextromethorphan. Volunteers with a ratio greater than 0.3 were assigned a PM phenotype, and those with a ratio less than 0.3 were assigned an EM phenotype.
This was a single-blind, sequential study composed of two periods. […] Doses were administered with 240 mL of water.
Pharmacokinetic parameter estimates were calculated with noncompartmental analysis by using WinNonlin Professional Version 2.1 (Pharsight Corp, Mountain View, Calif.). The steady state maximum plasma concentration (Css,max), and the corresponding time of the maximum concentration (Tmax) were observed values. The elimination rate constant (λz) was determined as the slope of the linear regression for the terminal log-linear portion of the concentration-time curve. Terminal half-life (t1/2) was calculated as ln(2)/λz. The area under the plasma concentration time curve (AUC0-τ) over the dosing interval was estimated by the linear trapezoidal method. […] Apparent clearance (CLss/F) and apparent volume of distribution (Vz/F) were calculated as Dose/AUC0-τ and as (CLss/F)/λz, respectively.
Except for Tmax, all parameters were log transformed, and a mixed-effect analysis of variance was performed with subject as a random effect. […] For Tmax, a Wilcoxon sign-rank test was performed. Data from all subjects who received study drug are included in the pharmacokinetic and statistical analyses, except for the Tmax analyses that excluded subjects with measurements for only one treatment. Statistical analyses were performed with SAS Version 6.12 (SAS Institute, Cary, N.C.).

In series [3] the test system is ADHD. The series can be described thus: Study of atomoxetine versus placebo in the treatment of ADHD. It is filed as in vivo, human. From the text:
Inter-individual variability in drug metabolism poses a challenge in predicting dosing, safety, and efficacy of a drug. Pharmacokinetic factors, as well as substantial intersubject pharmacodynamic variability, have been proposed as a factor in cases of therapeutic failure of methylphenidate (DeVane, et al., Journal of Clinical Psychopharmacology, 20(3), 347 (2000)).

As usually defined, the half-life is the time needed for the level to fall by half in the phase considered. For orientation: Tmax means the time at which the peak concentration occurs.

`CNCC[C@@H](Oc1ccccc1C)c1ccccc1` [Atomoxetine, (R)-(−)-N-methyl-3-(2-methylphenoxy)-3-phenylpropylamine]: the mean half-life in series [1] (majority of patients) was 4.5 ± 1.1 h. Further, the half-life in series [1] (two patients (second class of kinetic disposition)) was 17.1 h and 21 h; in series [2] (20 mg, atomoxetine alone) it was 3.92 h; in series [2] (20 mg, atomoxetine alone (Period 1), steady state, mean (range), n = 21) it was 4.03 h; in series [2] (after concomitant paroxetine administration), 10 h; in series [2] (atomoxetine with paroxetine (Period 2), steady state, mean (range), n = 14) it was 11 h. Also, the Tmax was determined as 1 h in series [2] (20 mg, atomoxetine alone (Period 1), steady state, median (range), n = 21, read-out: Tmax); 1.5 h in series [2] (atomoxetine with paroxetine (Period 2), steady state, median (range), n = 14, read-out: Tmax); 0.5 h in series [2] (atomoxetine with paroxetine versus atomoxetine alone, read-out: median of the paired difference in Tmax). The AUC came to 846 ng·h/mL in series [2] (20 mg) and 5970 ng·h/mL in series [2]. Also, the Vd/F in series [2] (20 mg) was determined as 2.2 L/kg; in series [2] it was 0.803 L/kg. For the same compound, the “response to atomoxetine treatment” value in series [3] (poor metabolizer ADHD patients) is “greater response”. Moreover, the “efficacy in the treatment of ADHD versus placebo” value in series [3] (regardless of CYP2D6 status, extensive or poor metabolizer) is reported as “robustly better than placebo”.
